From ChEMBL document CHEMBL1137296, “Subtle side-chain modifications of the hop phytoestrogen 8-prenylnaringenin result in distinct agonist/antagonist activity profiles for estrogen receptors alpha and beta” (J Med Chem, 2006)

Tests used:
Estrogen receptor = molecular target: T1, Estrogen receptor (Homo sapiens, UniProt P03372)
T1 sequence (P03372 whole entry): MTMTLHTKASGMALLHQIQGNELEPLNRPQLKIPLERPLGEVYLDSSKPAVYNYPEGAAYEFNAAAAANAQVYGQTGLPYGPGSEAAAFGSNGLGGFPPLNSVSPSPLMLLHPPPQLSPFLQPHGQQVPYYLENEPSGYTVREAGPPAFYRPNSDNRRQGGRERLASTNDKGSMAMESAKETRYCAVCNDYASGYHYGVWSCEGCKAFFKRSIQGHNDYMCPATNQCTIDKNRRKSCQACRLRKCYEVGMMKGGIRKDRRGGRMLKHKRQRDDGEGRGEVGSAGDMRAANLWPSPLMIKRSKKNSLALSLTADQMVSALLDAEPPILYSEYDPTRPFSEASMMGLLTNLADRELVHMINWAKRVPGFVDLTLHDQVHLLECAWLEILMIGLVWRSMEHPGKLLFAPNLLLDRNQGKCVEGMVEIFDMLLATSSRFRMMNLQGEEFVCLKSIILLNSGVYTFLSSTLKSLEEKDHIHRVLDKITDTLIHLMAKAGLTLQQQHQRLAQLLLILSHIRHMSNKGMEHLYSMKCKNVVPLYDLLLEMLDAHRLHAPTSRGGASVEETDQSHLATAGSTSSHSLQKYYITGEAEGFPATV
Description: Displacement of [3H]E2 from human recombinant ERalpha LBD by SPA

Estrogen receptor beta = Estrogen receptor beta (Homo sapiens, UniProt Q92731)
Sequence of Estrogen receptor beta (Q92731 whole entry): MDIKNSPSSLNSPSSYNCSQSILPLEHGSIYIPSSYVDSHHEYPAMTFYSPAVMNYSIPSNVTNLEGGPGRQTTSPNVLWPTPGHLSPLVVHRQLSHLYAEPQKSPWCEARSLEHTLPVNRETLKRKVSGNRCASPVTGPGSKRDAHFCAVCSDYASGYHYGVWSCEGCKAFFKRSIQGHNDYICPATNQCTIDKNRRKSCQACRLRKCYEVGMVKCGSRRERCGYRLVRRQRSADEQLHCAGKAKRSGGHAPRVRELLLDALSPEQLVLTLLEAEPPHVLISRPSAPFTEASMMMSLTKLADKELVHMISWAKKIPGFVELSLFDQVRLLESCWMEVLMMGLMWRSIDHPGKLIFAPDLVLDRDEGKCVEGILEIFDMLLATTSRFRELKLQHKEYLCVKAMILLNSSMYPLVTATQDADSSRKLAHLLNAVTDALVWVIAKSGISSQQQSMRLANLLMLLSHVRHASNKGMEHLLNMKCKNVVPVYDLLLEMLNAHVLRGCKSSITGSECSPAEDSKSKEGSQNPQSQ
Description: Displacement of [3H]E2 from human recombinant ERbeta LBD by SPA

[1] = molecular target: T2, Estrogen receptor (Homo sapiens) (UniProt P03372); conditions: Huh-7, filed as antagonist
T2 sequence (whole entry): T1 sequence (P03372 whole entry)
Description: Antagonist activity on ERalpha-mediated transcription of ERE-luciferase reporter gene in human Huh7 cells relative to estradiol

Structure (SMILES)	IC50 (Estrogen receptor)	IC50 (Estrogen receptor beta)	Antagonist activity [1]
CC(C)(C)Cc1c(O)cc(O)c2c1O[C@H](c1ccc(O)cc1)CC2=O	216 nM	141 nM	–
Cc1c(O)cc(O)c2c1O[C@H](c1ccc(O)cc1)CC2=O	5250 nM	863 nM	–
O=C1C[C@@H](c2ccc(O)cc2)Oc2cc(O)cc(O)c21 [NARINGENIN]	75300 nM	13500 nM	–
O=C1C[C@@H](c2ccc(O)cc2)Oc2c(Cc3ccccc3)c(O)cc(O)c21	503 nM	244 nM	–
CCCCCCCCCCCc1c(O)cc(O)c2c1O[C@H](c1ccc(O)cc1)CC2=O	1020 nM	421 nM	Partial antagonist
CCCCCCCCCc1c(O)cc(O)c2c1O[C@H](c1ccc(O)cc1)CC2=O	436 nM	113 nM	Partial antagonist

The remaining lines, values ahead:

IC50 (Estrogen receptor)	IC50 (Estrogen receptor beta)	Antagonist activity [1]	Structure (SMILES)
80 nM	37 nM	–	CC(C)Cc1c(O)cc(O)c2c1O[C@H](c1ccc(O)cc1)CC2=O
383 nM	97 nM	–	CCCCCc1c(O)cc(O)c2c1O[C@H](c1ccc(O)cc1)CC2=O
392 nM	69 nM	Partial antagonist	CCCCCCCc1c(O)cc(O)c2c1O[C@H](c1ccc(O)cc1)CC2=O
140 nM	59 nM	–	CC(C)CCc1c(O)cc(O)c2c1O[C@H](c1ccc(O)cc1)CC2=O
155 nM	29 nM	–	CCCc1c(O)cc(O)c2c1O[C@H](c1ccc(O)cc1)CC2=O
